Source: patent publication US20240335404A1, “SUBSTITUTED ESTERS CONTAINING POLYOLS AND SACCHARIDES FOR TREATING HEPATOTOXICITY AND FATTY LIVER DISEASES” (SINEW PHARMA INC., priority 2015, published 2024)
Like-named read-outs stand apart in the source and are kept apart here.

What was measured:
HepG2 fatty liver cells = experiment: TG content in oleic acid-induced fatty liver cells from HepG2; type: cell-based, human; details: tested substances 1.0 μM
Description: The activity of the various ingredients as described herein, including mannitol and sucralose and others, in reduction of fat content was analyzed by using human hepatoma cell line Hep G2.
HepG2 cell lines (15×10^6 cells) were cultured in DMEM culture No. B, incubated in an incubator with 5% CO2 at 37° C. for 24 hours, cultured in DMEM culture No. C (serum-free medium) for 24 hours, and finally cultured in DMEM culture No. D (containing oleate/albumin complex) for another 48 hours to induce HepG2 cell lines to form fatty liver cells.
HepG2 cell lines were divided into six groups, including: (1) Blank: no treatment; (2) DMSO group: cells from Blank were treated with dimethyl sulfoxide (DMSO); (3) Control: induction with oleic acid to form fatty liver cells; (4) Vehicle group: fatty liver cells formed by induction with oleic acid were treated with DMSO; (5) Positive control: fatty liver cells were treated with silyrnarin; and (6) Test Group: fatty liver cells were treated with various compounds of the present invention.
After incubation for 72 hours, the treated cells from each group were successively washed twice in PBS, and then incubated with 0.5 ml of trypsin/EDTA for 3 minutes. Afterwards, the cells were scraped with 2 ml of PBS and then transferred to the centrifuge tube to be shattered by ultrasonic. A volume of 20 μl cell extracts was taken to determine the content of protein. TG determination was performed using commercially available combination of agents (Randox). The TG content obtained above was divided by the protein content to get a ratio, which represented the relative content of TG in cells.
The equation for calculating reduction rate (%) of TG was as follows: [1−(TG content of Test Group−TG content of Blank)/(TG content of Oleic acid induction Group−TG content of Blank)]×100%.

CYP2E1 = CYP2E1 (Homo sapiens, UniProt P05181); details: microsomes, 30 min, pH 7.4
CYP2E1, sequence (P05181 whole entry): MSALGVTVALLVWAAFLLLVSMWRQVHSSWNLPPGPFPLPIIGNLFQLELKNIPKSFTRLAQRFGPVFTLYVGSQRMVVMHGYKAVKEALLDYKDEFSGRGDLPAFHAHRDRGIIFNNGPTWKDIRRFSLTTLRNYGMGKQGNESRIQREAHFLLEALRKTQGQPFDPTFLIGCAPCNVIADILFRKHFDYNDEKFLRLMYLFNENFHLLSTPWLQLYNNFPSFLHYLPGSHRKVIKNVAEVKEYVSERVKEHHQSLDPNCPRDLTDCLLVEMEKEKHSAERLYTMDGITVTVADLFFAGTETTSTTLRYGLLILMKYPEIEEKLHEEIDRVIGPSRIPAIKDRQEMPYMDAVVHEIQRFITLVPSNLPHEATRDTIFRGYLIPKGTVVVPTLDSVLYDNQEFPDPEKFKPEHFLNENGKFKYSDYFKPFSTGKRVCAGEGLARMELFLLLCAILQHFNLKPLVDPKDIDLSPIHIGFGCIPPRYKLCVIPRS
Description: After addition of the test sample, the amount of CYP450 isozyme metabolite standard 6-OH-CZX (6-Hydroxy-Chlorzoxazone) is specific used for calculation of the CYP450 isozyme (CYP2E1) inhibition ratio of the test sample by using the amount of 6-OH-CZX of the control group as the baseline.
All samples were tested in triplicate. To determine the percentage inhibition, each test compound was dissolved in 1, 2, 4 μg/mL to three different concentrations. The CYP2E1 activity levels in the presence of the test compounds were compared with the control incubations. The 500-μL reaction mixture, containing 0.5 mg of microsomal protein, was incubated with 320 μM CZX in the presence of 5 mM MgCl2 and 1 mM NADPH in 50 mM phosphate buffer with pH 7.4 at 37° C. for 30 min. The reaction was terminated by ice-cold acetonitrile, and then 4-hydroxyl tolbutamide was added as an internal standard. The organic phase was evaporated to dryness and reconstituted into the mobile phase (methanol:water=1:1) prior to liquid chromatography-tandem mass spectrometry (LC-MS/MS) analysis. An API 3000 triple-quadrupole mass spectrometer equipped with an ion-spray (ESI) source was used to determine 6-OH-CZX in the human liver microsomes. The ESI interface was used in the positive-ion mode. The 6-OH-CZX was monitored at a transition of m/z 284.5→185.9.
The CYP450 isozyme activity levels in the presence of the test compounds were compared with the control incubations.

[1] = system: Liver Injuries Induced by CCl4; experiment: Liver injuries induced by CCl4 in mice (GSP, AST/ALT, HAI); type: in vivo; details: CCl4-induced liver injuries; dose less than or equivalent to 100 mg per person
Description: In the normal control, animals were administered with normal saline by intraperitoneal injection. In the control group of CCl4 induced liver injuries, animals were intraperitoneally injected with 10 ml/kg CCl4 (40% in corn oil) to induce hepatotoxicity. In the experimental group, animals were intraperitoneally injected with 10 ml/kg CCl4 (40% in corn oil) to induce hepatotoxicity, and 4 hours later, different ingredients of the present invention were administered by tube feeding. Blood was collected from the mice before administration with the ingredients of the present invention or at 24 hours after administration with the ingredients of the present invention for AST/ALT assays. Finally, animals were sacrificed at day 2 and blood were collected for AST/ALT assay and histological analysis was performed.
On the other hand, other experimental groups of mice were fed with the ingredients of the present invention for 12 weeks and the mice were subjected to GSP tests.
(§1) Liver damage is quantified by measuring plasma AST and ALT activity. AST and ALT are common indicators of hepatotoxicity and are measured by using the Synchron LXi 725 system (Beckman Instruments, U.S.).
Following scarification of the rats, histological analysis was performed. Liver samples were fixed with 10% phosphate-buffered formalin, dehydrated an embedded in paraffin, Sections were prepared in 5 μm thickness and then stained with hematoxylin and eosin and subjected to Periodic acid Schiff stain (PAS). The stained sections were observed under the optic microscope.
After the study was completed, all rats were subjected to GSP test. Rats were i.v. injected with 0.4 g/ml BW galactose solution 0.5 g/kg within 30 seconds and one blood sample was collected at 5, 10, 15, 30, 45 and 60 minutes post injection from the tail vein. Colorimetric galactose dehydrogenase is used to quantify the concentration of galactose and the test concentration ranges from 50 to 1,000 μg/ml. The within-day variation of each concentration is calculated using standard deviation and coefficient of variation (CV) and the maximum allowable coefficient of variation is 10% CV, whereas day-to-day variation is examined by comparing the slope and intercept of calibration curves. The GSP is the blood galactose concentration obtained 60 seconds after stopping the 30-second injection.
All data are represented in mean±standard deviation (SD) and the results are calculated using ANOVA to determine the significance. Statistical Package of the Social Science program (Version 13, SPSS Inc.) is used for calculations followed by post hoc test to examine the least significant difference for multiple comparisons so as to confirm the significant differences between groups and the average difference between groups was significant p<0.05.

[2] = system: Liver Injuries Induced by APAP; experiment: Liver injuries induced by APAP in rats (GSP, AST/ALT, HAI, survival); type: in vivo, SD (Sprague-Dawley) rats; details: APAP 2,000 mg/kg, 140 mg/kg of NAC followed by 5 × 70 mg/kg NAC at 4 h intervals
Description: Male SD (Sprague-Dawley) rats weighing 175-280 g were purchased from the National Laboratory Animal Center (NLAC), Taiwan. The study was conducted in accordance with the Guidelines for Conducting Animal Studies of the National Health Research Institute and all rats were placed in the air/humidity controlled environment under the 12 hours of day/12 hours of night cycle and with unlimited water and food supply. During the course of the study, the weights of rats were monitored continuously with normal water supply.
In the normal control (Group 1), animals were not fed with APAP. In the control group of APAP-induced liver injuries (Group 2), animals were fed with a single dose of APAP in the amount of 2,000 mg per kilogram of body weight to induce hepatotoxicity. In the positive control group of treatment with NAC (Group 3), animals were fed with a single dose of APAP in the amount of 2,000 mg per kilogram of body weight to induce hepatotoxicity, and 4 hours later, a 24-hour treatment period by tube feeding was started, including first administration of 140 mg of NAC (per kilogram of body weight) and later administration of 70 mg of NAC (per kilogram of body weight) every 4 hours for five times. In the experimental group (Group 4), animals were fed with a single dose of APAP in the amount of 2,000 mg per kilogram of body weight to induce hepatotoxicity, and 4 hours later, a 24-hour treatment period by tube feeding was started, including six dosing with the ingredients of the present invention every 4 hours, as follows: • (a) (Group 4.1): administration of mannitol at a dose less than or equivalent to 100 mg per person every 4 hours for 24 hours, • (b) (Group 4.2): administration of double dose of mannitol as in Group 4.1 every 4 hours for 24 hours, • (c) (Group 4.3): administration of sucralose at a dose less than or equivalent to 100 mg per person every 4 hours for 24 hours, • (d) (Group 4.4): administration of double dose of sucralose of Group 4.3 every 4 hours for 24 hours, • (e) (Group 4.5): administration of a combination of 0.5 times the dose of mannitol as in Group 4.1 and 0.5 times the dose of sucralose as in Group 4.3 per kilogram of body weight every 4 hours for 24 hours, • (f) (Group 4.6): administration of a combination of the dose of mannitol as in Group 4.1 and the dose of sucralose as in Group 4.3 every 4 hours for 24 hours, • (g) (Group 4.7): administration of a combination of 1.5 times the dose of mannitol as in Group 4.1 and 1.5 times the dose of sucralose as in Group 4.3 every 4 hours for 24 hours, • (h) (Group 4.8): administration of a combination of double dose of mannitol as in Group 4.1 and double dose of sucralose as in Group 4.3 every 4 hours for 24 hours, and • (i) (Group 4.9): first administration of 140 mg of NAC per kilogram of body weight and later administration of a combination of 70 mg of NAC plus double dose of mannitol as in Group 4.1 and double dose of sucralose as in Group 4.3 every 4 hours for five times.
After the 24-hour treatment period, blood was collected from the tail artery of the rats for AST/SLT assays. Subsequently, rats were subjected to GSP tests. Finally, rats were sacrificed and histological analysis was performed.
After completion of the treatments, rats were sacrificed under ether anesthesia, and blood was collected from the tail artery of the rats and placed in a test tube containing EDTA. The plasma was centrifuged at 13,000 at 4° C. for 15 minutes and the isolated plasma was transferred to Eppendorf tubes in aliquots and stored at −80° C.
as §1
Following scarification of the rats, histological analysis was performed.

Oc1cc(O)c2c(c1)O[C@H](c1ccc(O)c(O)c1)[C@@H](O)C2 [(+)-Catechin]
TG reduction rate (%) (HepG2 fatty liver cells): 29.57 ± 4.02%

Oc1cc(O)c2c(c1)O[C@H](c1ccc(O)c(O)c1)[C@H](O)C2 [(−)-Epicatechin]
TG reduction rate (%) (HepG2 fatty liver cells): 10.76 ± 8.92%

Oc1cc(O)c2c(c1)O[C@H](c1cc(O)c(O)c(O)c1)[C@H](O)C2 [(−)-Epigallocatechin]
TG reduction rate (%) (HepG2 fatty liver cells): 36.78 ± 6.67%

COc1ccc(O)c(C(C)(C)C)c1 [Butylated hydroxyanisole]
TG reduction rate (%) (HepG2 fatty liver cells): 6.21 ± 3.8%

CCN(CC)C(=S)S [DDTC, Diethyldithiocarbamic acid]
CYP 2E1 inhibition ratio (%) (CYP2E1; 10 μM): 11.2 ± 2.4% | CYP 2E1 inhibition ratio (%) (CYP2E1; 50 μM): 51.2 ± 3.2%

COc1ccc([C@@H]2CC(=O)c3c(O)cc(O[C@@H]4O[C@H](CO[C@@H]5O[C@@H](C)[C@H](O)[C@@H](O)[C@H]5O)[C@@H](O)[C@H](O)[C@H]4O)cc3O2)cc1 [Didymin]
TG reduction rate (%) (HepG2 fatty liver cells): 20.37 ± 12.69%

O=c1c(O)c(-c2ccc(O)c(O)c2)oc2c(O[C@@H]3O[C@H](CO)[C@@H](O)[C@H](O)[C@H]3O)c(O)cc(O)c12 [Gossypin]
TG reduction rate (%) (HepG2 fatty liver cells): 20.25 ± 4.63%

COc1ccc([C@@H]2CC(=O)c3c(O)cc(O[C@@H]4O[C@H](CO[C@@H]5O[C@@H](C)[C@H](O)[C@@H](O)[C@H]5O)[C@@H](O)[C@H](O)[C@H]4O)cc3O2)cc1O [Hesperidin]
TG reduction rate (%) (HepG2 fatty liver cells): 34.81 ± 5.25%

O=c1c(O)c(-c2ccc(O)cc2)oc2cc(O)cc(O)c12 [Kaempferol]
ALT [1]: 128 ± 40 IU/L | AST [1]: 198 ± 105 IU/L | GSP [1]: 456 ± 101 mg/L

COc1ccc(-c2cc(=O)c3c(O)cc(O[C@@H]4O[C@H](CO[C@@H]5O[C@@H](C)[C@H](O)[C@@H](O)[C@H]5O)[C@@H](O)[C@H](O)[C@H]4O)cc3o2)cc1 [Linarin]
TG reduction rate (%) (HepG2 fatty liver cells): 9.24 ± 12.34%

O=c1cc(-c2ccc(O)c(O)c2)oc2cc(O[C@@H]3O[C@H](CO)[C@@H](O)[C@H](O)[C@H]3O)cc(O)c12 [Luteolin-7-glucoside]
TG reduction rate (%) (HepG2 fatty liver cells): 19.33 ± 4.59%

CC(=O)N[C@@H](CS)C(=O)O [NAC, N-acetylcysteine, reference compound]
ALT [2]: 221 ± 69 IU/L | AST [2]: 428 ± 74 IU/L | GSP [2]: 393 ± 68 mg/L | Total HAI score [2]: 4.2 ± 0.8 | Survival (Day 14, n/n) ([2]; Day 14): 3/6

COc1ccc([C@@H]2CC(=O)c3c(O)cc(O[C@@H]4O[C@H](CO)[C@@H](O)[C@H](O)[C@H]4O[C@@H]4O[C@@H](C)[C@H](O)[C@@H](O)[C@H]4O)cc3O2)cc1O [Neohesperidin]
TG reduction rate (%) (HepG2 fatty liver cells): 13.29 ± 7.21%

O=C(O)c1ccc(O)c(O)c1 [Protocatechuic acid]
TG reduction rate (%) (HepG2 fatty liver cells): 18.57 ± 7.6%

C[C@@H]1O[C@@H](Oc2c(-c3ccc(O)c(O)c3)oc3cc(O)cc(O)c3c2=O)[C@H](O)[C@H](O)[C@H]1O [Quercitrin]
TG reduction rate (%) (HepG2 fatty liver cells): 9.15 ± 9.24%

COc1ccc(-c2cc(=O)c3c(O)cc(O)c(-c4cc(-c5cc(=O)c6c(O)cc(OC)cc6o5)ccc4OC)c3o2)cc1 [Sciadopitysin]
TG reduction rate (%) (HepG2 fatty liver cells): 21.83 ± 5.04%

O=C([O-])c1ccccc1.[Na+] [Sodium benzoate]
TG reduction rate (%) (HepG2 fatty liver cells): 14.35 ± 4.86%

O=S(=O)([O-])NC1CCCCC1.[Na+] [Sodium cyclamate]
TG reduction rate (%) (HepG2 fatty liver cells): 4.77 ± 4.49%

COc1c(O)cc(O)c2c(=O)cc(-c3ccccc3)oc12 [Wongonin]
TG reduction rate (%) (HepG2 fatty liver cells): 20.78 ± 1.12%

O=c1c(O)c(-c2ccc(O)c(O)c2)oc2cc(O)cc(O)c12 [quercetin]
ALT [1]: 93 ± 26 IU/L | AST [1]: 115 ± 40 IU/L | GSP [1]: 286 ± 70 mg/L | Total HAI score [1]: 1.1 ± 0.7

(−)-Epicatechin-3-gallate
TG reduction rate (%) (HepG2 fatty liver cells): 32.7 ± 4.33%

epigallocetechin-3-gallate
ALT [1]: 95 ± 36 IU/L | AST [1]: 144 ± 49 IU/L | GSP [1]: 312 ± 140 mg/L | Total HAI score [1]: 1.7 ± 0.9
